“And” between values parts separate entries of the source, which are not always exact repeats. Equal values may be shown once. Inconclusive results and toxic doses are left out.
Tested on: L1210 leukemia ip in BDF1 mice, survival T/C
Assay: NCI In Vivo Anticancer Drug Screen. Data for tumor model L1210 Leukemia (intraperitoneal) in B6D2F1 (BDF1) mice
Conditions: endpoint: mean survival time, higher = longer survival
In short: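 Value reflects the ratio of survival in compound-treated mice to survival in vehicle-treated controls, with both groups carrying the same transplanted tumor.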

[1] = dose: 100.0 mg/kg/injection, schedule: Q04DX003 (ip), vehicle: saline with Tween-80
[2] = dose: 200.0 mg/kg/injection, schedule: Q04DX003 (ip), vehicle: saline with Tween-80
[3] = dose: 100.0 mg/kg/injection, schedule: Q01DX009 (ip), vehicle: saline with Tween-80
[4] = dose: 100.0 mg/kg/injection, schedule: Q01DX009 (ip), vehicle: Klucel (hydroxypropylcellulose) (HPC)
[5] = dose: 100.0 mg/kg/injection, schedule: Q04DX003 (ip), vehicle: Klucel (hydroxypropylcellulose) (HPC)
[6] = dose: 200.0 mg/kg/injection, schedule: Q01DX009 (ip), vehicle: Klucel (hydroxypropylcellulose) (HPC)
[7] = dose: 200.0 mg/kg/injection, schedule: Q04DX003 (ip), vehicle: Klucel (hydroxypropylcellulose) (HPC)
[8] = dose: 400.0 mg/kg/injection, schedule: Q04DX003 (ip), vehicle: Klucel (hydroxypropylcellulose) (HPC)
[9] = dose: 100.0 mg/kg/injection, schedule: Q04DX002 (ip), vehicle: Klucel (hydroxypropylcellulose) (HPC)

Compound: N/C(=N\O)c1ccc2ccc3cccnc3c2n1
- T/C [1]: 102 % of control
- T/C [2]: 87 % of control

Compound: COC1=C(OC)C(=O)C(Sc2ccc3ccccc3c2)=CC1=O
- T/C (dose: 6.25 mg/kg/injection, schedule: Q01DX009 (ip), vehicle: saline with Tween-80): 100 % of control
- T/C (dose: 12.5 mg/kg/injection, schedule: Q01DX009 (ip), vehicle: saline with Tween-80): 94 % of control
- T/C (dose: 25.0 mg/kg/injection, schedule: Q01DX009 (ip), vehicle: saline with Tween-80): 100 % of control
- T/C (dose: 50.0 mg/kg/injection, schedule: Q01DX009 (ip), vehicle: saline with Tween-80): 96 % of control
- T/C [3]: 94 % of control

Compound: CCCC(=O)N1CCCC1
- T/C (dose: 100.0 mg/kg/injection, schedule: Q04DX002 (ip), vehicle: saline): 107 % of control
- T/C (dose: 200.0 mg/kg/injection, schedule: Q04DX002 (ip), vehicle: saline): 103 % of control
- T/C (dose: 400.0 mg/kg/injection, schedule: Q04DX002 (ip), vehicle: saline): 111 % of control

Compound: CN=C(N)c1ccc(NC(=O)c2ccc(C(=O)Nc3ccc(C(N)=NC)cc3)c(N)c2)cc1
- T/C (dose: 0.37 mg/kg/injection, schedule: Q01DX Z (ip), vehicle: water): 104 % of control
- T/C (dose: 0.75 mg/kg/injection, schedule: Q01DX Z (ip), vehicle: water): 121 % of control
- T/C (dose: 1.5 mg/kg/injection, schedule: Q01DX Z (ip), vehicle: water): 123 % of control
- T/C (dose: 1.75 mg/kg/injection, schedule: Q01DX Z (ip), vehicle: water): 154 % of control
- T/C (dose: 2.0 mg/kg/injection, schedule: Q01DX Z (ip), vehicle: carboxymethylcellulose (CMC)): 189 % of control
- T/C (dose: 4.0 mg/kg/injection, schedule: Q01DX Z (ip), vehicle: carboxymethylcellulose (CMC)): 218 % of control
- T/C (dose: 6.0 mg/kg/injection, schedule: Q01DX Z (ip), vehicle: carboxymethylcellulose (CMC)): 184 % of control
- T/C (dose: 6.7 mg/kg/injection, schedule: Q01DX001 (sc), vehicle: water): 110 % of control
- T/C (dose: 8.0 mg/kg/injection, schedule: Q01DX Z (ip), vehicle: carboxymethylcellulose (CMC)): 170 % of control
- T/C (dose: 10.0 mg/kg/injection, schedule: Q01DX001 (sc), vehicle: water): 107 % of control
- T/C (dose: 10.0 mg/kg/injection, schedule: Q01DX Z (ip), vehicle: carboxymethylcellulose (CMC)): 107 % of control
- T/C (dose: 12.0 mg/kg/injection, schedule: Q01DX Z (ip), vehicle: carboxymethylcellulose (CMC)): 96 % of control
- T/C (dose: 14.0 mg/kg/injection, schedule: Q01DX Z (ip), vehicle: carboxymethylcellulose (CMC)): 88 % of control
- T/C (dose: 15.0 mg/kg/injection, schedule: Q01DX001 (sc), vehicle: water): 119 % of control
- T/C (dose: 25.0 mg/kg/injection, schedule: Q01DX Z (oral), vehicle: water): 110 % of control
- T/C (dose: 50.0 mg/kg/injection, schedule: Q01DX Z (oral), vehicle: water): 100 % of control
- T/C (dose: 100.0 mg/kg/injection, schedule: Q01DX Z (oral), vehicle: water): 97 % of control
- T/C (dose: 200.0 mg/kg/injection, schedule: Q01DX Z (oral), vehicle: water): 110 % of control

Compound: COc1ccnc(SCc2ccccc2)n1
- T/C [4]: 97 % of control
- T/C [5]: 100 % of control
- T/C [6]: 95 % of control
- T/C [7]: 100 % of control
- T/C [8]: 102 % of control

Compound: O=P1(N(CCCl)CCCl)N(Cc2ccccc2)c2ccccc2N1Cc1ccccc1
- T/C (dose: 100.0 mg/kg/injection, schedule: Q01DX001 (ip), vehicle: Klucel (hydroxypropylcellulose) (HPC)): 102 % of control
- T/C [5]: 102 % of control
- T/C (dose: 200.0 mg/kg/injection, schedule: Q01DX001 (ip), vehicle: Klucel (hydroxypropylcellulose) (HPC)): 94 % of control
- T/C [7]: 98 % of control
- T/C (dose: 400.0 mg/kg/injection, schedule: Q01DX001 (ip), vehicle: Klucel (hydroxypropylcellulose) (HPC)): 100 % of control
- T/C [8]: 101 % of control

Compound: COc1ccc(/C=C/C(=O)c2ccc(OC)cc2)cc1
- T/C [4]: 100 % of control
- T/C [5]: 102 % of control
- T/C [6]: 94 % of control
- T/C [7]: 98 % of control
- T/C (dose: 400.0 mg/kg/injection, schedule: Q01DX009 (ip), vehicle: Klucel (hydroxypropylcellulose) (HPC)): 92 % of control
- T/C [8]: 101 % of control

Compound: O=N[O-].O=N[O-].[NH2-].[NH2-].[Pt+2]
- T/C (dose: 12.5 mg/kg/injection, schedule: Q01DX009 (ip), vehicle: Klucel (hydroxypropylcellulose) (HPC)): 103 % of control
- T/C (dose: 25.0 mg/kg/injection, schedule: Q01DX009 (ip), vehicle: Klucel (hydroxypropylcellulose) (HPC)): 106 % of control
- T/C (dose: 50.0 mg/kg/injection, schedule: Q01DX009 (ip), vehicle: Klucel (hydroxypropylcellulose) (HPC)): 106 % of control

Compound: O=C(Nc1cccc(C(F)(F)F)c1)C(Br)C(Br)c1ccccc1 (stereo unspecified)
- T/C [4]: 103 % of control
- T/C [6]: 100 % of control

Compound: CC1(C)CN1Sc1ccc([N+](=O)[O-])cc1 (stereo unspecified)
- T/C (dose: 25.0 mg/kg/injection, schedule: Q04DX002 (ip), vehicle: Klucel (hydroxypropylcellulose) (HPC)): 107 % of control
- T/C (dose: 50.0 mg/kg/injection, schedule: Q04DX002 (ip), vehicle: Klucel (hydroxypropylcellulose) (HPC)): 103 % of control
- T/C [9]: 96 % of control and 107 % of control

Compound: CC(C)(C)NC(=O)C1C(c2ccccc2)C1c1ccccc1 (stereo unspecified)
- T/C [9]: 90 % of control
- T/C (dose: 200.0 mg/kg/injection, schedule: Q04DX002 (ip), vehicle: Klucel (hydroxypropylcellulose) (HPC)): 113 % of control
- T/C (dose: 400.0 mg/kg/injection, schedule: Q04DX002 (ip), vehicle: Klucel (hydroxypropylcellulose) (HPC)): 100 % of control

Compound: O=C1c2ccccc2C(=O)N1N1C(=O)c2ccccc2C1=O
- T/C [3]: 96 % of control
- T/C [1]: 97 % of control
- T/C (dose: 200.0 mg/kg/injection, schedule: Q01DX009 (ip), vehicle: saline with Tween-80): 91 % of control
- T/C [2]: 100 % of control
- T/C (dose: 400.0 mg/kg/injection, schedule: Q01DX009 (ip), vehicle: saline with Tween-80): 96 % of control
- T/C (dose: 400.0 mg/kg/injection, schedule: Q04DX003 (ip), vehicle: saline with Tween-80): 97 % of control

Compound: CC1(O)CCCCCCC1
- T/C (dose: 50.0 mg/kg/injection, schedule: Q01DX001 (ip), vehicle: saline): 102 % of control
- T/C (dose: 100.0 mg/kg/injection, schedule: Q01DX001 (ip), vehicle: saline): 93 % of control
- T/C (dose: 200.0 mg/kg/injection, schedule: Q01DX001 (ip), vehicle: saline): 91 % of control

Compound: O=C1CC2OCC=C3C[N+]4(SS(=O)(=O)[O-])CCC56c7ccccc7N1C5C2C3CC64 (stereo unspecified)
- T/C (dose: 0.15 mg/kg/injection, schedule: Q01DX009 (ip), vehicle: saline): 93 % of control
- T/C (dose: 0.31 mg/kg/injection, schedule: Q01DX009 (ip), vehicle: saline): 95 % of control
- T/C (dose: 0.31 mg/kg/injection, schedule: Q04DX003 (ip), vehicle: acetone): 108 % of control
- T/C (dose: 0.62 mg/kg/injection, schedule: Q01DX009 (ip), vehicle: saline): 93 % of control
- T/C (dose: 0.62 mg/kg/injection, schedule: Q04DX003 (ip), vehicle: acetone): 108 % of control
- T/C (dose: 0.92 mg/kg/injection, schedule: Q01DX009 (ip), vehicle: saline): 92 % of control
- T/C (dose: 1.25 mg/kg/injection, schedule: Q01DX001 (ip), vehicle: saline): 98 % of control
- T/C (dose: 1.25 mg/kg/injection, schedule: Q04DX003 (ip), vehicle: acetone): 88 % of control
- T/C (dose: 1.4 mg/kg/injection, schedule: Q01DX009 (ip), vehicle: saline): 92 % of control

Compound: CC(C)=CCC(=O)Nc1ccc(Cl)nn1
- T/C [5]: 86 % of control
- T/C [7]: 91 % of control
- T/C [8]: 100 % of control

Compound: Cn1cnc2c(C(F)(F)F)nc(N)nc21
- T/C (dose: 100.0 mg/kg/injection, schedule: Q04DX003 (ip), vehicle: saline): 94 % of control
- T/C (dose: 200.0 mg/kg/injection, schedule: Q04DX003 (ip), vehicle: saline): 102 % of control

Compound: O=C(O)c1ccccc1[N+](=O)[O-].[Ag]
- T/C (dose: 12.5 mg/kg/injection, schedule: Q04DX003 (ip), vehicle: saline with Tween-80): 90 % of control
- T/C (dose: 25.0 mg/kg/injection, schedule: Q04DX003 (ip), vehicle: saline with Tween-80): 107 % of control
- T/C (dose: 50.0 mg/kg/injection, schedule: Q04DX003 (ip), vehicle: saline with Tween-80): 91 % of control

Compound: O=C(CCN1CC1)NCCc1ccccc1
- T/C (dose: 20.0 mg/kg/injection, schedule: Q04DX003 (ip), vehicle: Klucel (hydroxypropylcellulose) (HPC)): 92 % of control
- T/C (dose: 40.0 mg/kg/injection, schedule: Q04DX003 (ip), vehicle: Klucel (hydroxypropylcellulose) (HPC)): 95 % of control
- T/C [5]: 86 % of control

Compound: C=C(C)C1(Cc2ccccc2)C(=O)NC(=O)NC1=O
- T/C (dose: 75.0 mg/kg/injection, schedule: Q01DX001 (ip), vehicle: saline): 98 % of control

From PubChem BioAssay AID248 (DTP/NCI, 2004)
